The subject of assay [1] is C6 glioma cells. Kind of assay: Protection of C6 glioma cells from glutathione depletion-mediated oxidative stress (toxicity, LDH assay). The settings on record: data not shown. It counts as cell-based. The source says:
Competitive inhibition by glutamate of cystine uptake in certain cells leads to glutathione depletion and oxidative stress. This oxidative stress model has been described for glial C6 glioma cells (Kato et al., 1992. A mechanism for glutamate toxicity in the C6 glioma cells involving inhibition of cystine uptake leading to glutathione depletion. Neurosci. 48:903-914) and for the neuronal cell line N18RE105 (Murphy et al., 1989. Glutamate toxicity in a neuronal cell line involves inhibition of cystine transport leading to oxidative stress. Neuron 2:1547-1558).
Cell culture: The C6 glioma cell line (American Type Culture Collection, CCL 107) was cultivated in DMEM supplemented with 2 or 4 mM glutamine, 1 mM pyruvate and 5 or 10% heat-inactivated foetal calf serum. Cultures were maintained at 37° C. in an air/5~10% CO2, water saturated atmosphere.
Glutathione depletion and evaluation of drugs as antioxidants: Experiments were carried out with cultures plated at 30,000~50,000 cells/cm^2 in 24-well culture plates (for toxicity and lipid peroxide measurements) or at 136,000 cells/cm^2 in 96-well culture plates (for GSH determination). After 8-24 hr, the cultures were switched to culture medium in the absence or presence of the cystine uptake inhibitor glutamate at a final concentration of 10 mM. In order to test drugs for inhibition of oxidative stress, the drug was added together with glutamate (final concentration of solvent was 0.01% hydroxypropyl-β-cylodextrin, 0.1% DMSO). Intracellular glutathione levels were measured after 6~8 hr, lipid peroxides were measured after 14~20 hr, and toxicity and protection were analysed after 48 hr using an LDH assay according to the method of Bergmeyer and Bernt (UV-assay with pyruvate and NADH. In: Methods of Enzymatic Analysis. 1974. H. U. Bergmeyer, ed. Acad. Press, New York, 2nd Ed., pp 574-579).

The test system of assay [2] is human LDL. As to the kind of experiment: In vitro oxidation of human LDL (Cu-induced conjugated diene formation at 234 nm). In kind it is biochemical. How it is done: In vitro oxidation of human LDL Human venous blood was collected on EDTA (2.68 mM final concentration). Plasma was isolated by centrifugation. NaBr (37.3 mg/ml) was added and solubulized (final density 1.036 g/ml). Centrifuge tubes were first filled to a level corresponding to 2/3 of their maximal volume, further filled with a NaBr solution of 1.036 g/ml and then centrifuged for 18 hours at 45000 rpm in a 50 Ti rotor (Beckmann). After centrifugation, floating lipoproteins were discarded. The remaining solution was adjusted to a density of 1.055 g/ml. Filling of the centrifuge tubes and centrifugation were repeated as described above. After centrifugation, floating LDL was dialysed against a buffer containing 127 mM NaCl, 8 mM Na2 HPO4.2H2 O, 2.7 mM KCl and 1.47 mM KH2 PO4 at pH 7.4. After dialysis, LDL was filtered though a Millipore filter (0.45 μM) and protein content was determined. A dilution of 25 μg/ml was prepared with a millipored dialysis buffer. Oxidation was determined in a Pharmacia Ultraspec III spectrophotometer. Conjugated diene formation was registered at 234 nm. Two μl of a drug or solvent (DMSO) were added to Eppendorf tubes followed by 1 ml of LDL (25 μg/ml) and these substances were gently mixed and centrifuged for 1 min at 13000 g. The solution was pipetted in a Quartz cuvet that was thermostatised in the spectrophotometer at 37° C. After equilibration, the oxidation reaction was started by the addition of CuSO4 (final concentration 10 μM). Absorbance was measured every 3 minutes during the time course of the experiment. The absorbance at 234 nm was divided into three phases: a lag phase, a propagation phase and a decomposition phase (FIG. 1). The lag phase was defined as the intercept with the baseline of the tangent of the slope of the absorbance curve of the propagation phase. The rate of oxidation was defined as the tangent of the slope. Tmax was defined as the time required to attain the maximum absorbance between the propagation and the decomposition phase. The absorbance at tmax minus the absorbance at to was taken as an indicator of the total amount of dienes formed. To verify the reproducibility of the assay, a reference LDL sample was prepared and kept in darkness under nitrogen at 4° C. This reference sample was included in every oxidation experiment. LDL was isolated from 23 subjects. Plasma cholesterol ranged from 156 to 278 mg/dl (mean 213 mg/dl), triglycerides ranged from 47 to 328 mg/dl (mean 191 mg/dl) and phospholipids ranged from 178 to 327 mg/dl (mean 231 mg/dl).

The test system of assay [3] is primary embryonic hippocampal cultures. Kind of assay: In vitro neuroprotection against nitric oxide and superoxide radicals (inhibition of LDH release). In kind it is cell-based, rats. The settings on record: for inhibition at 1 µM / inhibition at 0.1 µM: Rattus norvegicus, read-out: % neuroprotection, mean ± SD; for inhibition at 1 µM: 10^-6 M; for inhibition at 0.1 µM: 10^-7 M. How it is done:
Primary embryonic hippocampal cultures were prepared essentially as described previously (Pauwels et al., Van Aschouw, H. P., Peeters, L., Moeremans, M., Leysen, J. E. (1992) Chronic treatment with sabeluzole protects cultured rat brain neurons from the neurotoxic effects of excitatory amino acids. Synapse, 12:271-280). Hippocampal formations of rats at embryonic day 17 were dissected and dissociated in 0.05% trypsin, 0.1 mg/ml DNase I in DMEM (Dulbecco Modified Eagle Medium). Heat-inactivated horse serum (HS) was added to a concentration of 4%, and the cells were centrifuged, washed with DMEM, and resuspended in DMEM/Ham's F12 (3:1) containing 10% HS. The cells were plated at a density of 4×10^5 cells/cm^2 in poly L-lysine (0.001%) precoated multiwell-24 plates. On day 1 in culture, the medium was changed to chemically defined CDM-R12 medium (DMEM-HEPES/Ham's F12 (3:1) containing 0.26% bovine serum albumin, 30 nM sodium selenite, 3 nM 3,3',5 triiodo-L-thyronine, 0.35 μM retinol, 0.3 μM retinol acetate, 2.3 μM DL-a-tocopherol, 2.1 μM DL-a-tocopherol acetate, 3.6 μM linolenic acid, 3.6 μM linoleic acid, 0.125% human transferrin, […], 57.7 nM corticosterone, 49 U/I insulin, 0.4 μM biotin, 10 μM L-carnitine, 83 μM D(+)-galactose, 3.3 μM glutathione, 10 μM ethanolamine, 0.1 mM putrescine; Romijn, H. J., van Huizen, F., Wolters, P. S. (1984) Towards an improved serum-free, chemically defined medium for long-term culturing of cerebral cortex tissue. Neurosci. Behav. Rev., 8:301-334). Acute and prolonged pretreatment of the, cultures was essentially as described previously (Pauwels et al., 1992). Drugs were dissolved, and diluted in 10% or 1% hydroxypropyl-β-cyclodextrin such that the final concentrations of the solvent in the acute and chronic exposures were 0.1% and 0.01% respectively. Compound A as used in the following examples is [(RRSR)+(RRRS)+(SSSR) +(SSRS)]-α-[[[2-(chroman-2-yl)-2-hydroxy-ethyl]amino]methyl]-6-hydroxy-2-chromanmethanol ethanedioate (1:1).
For acute treatment, drug, or solvent was added to the cultures on day 7. After 20 min the medium was replaced with 200 μl chemically defined DMEM medium (the same composition of CDM-R12 medium but without Ham's F12) (control), or chemically defined DMEM medium containing the oxidative stress trigger. Oxidative stress triggers used were 1 mM sodium nitroprusside (SNP, a nitric oxide radical generating compound), or 7.5-10 mM diethyldithiocarbamate (DDTC, a superoxide dismutase inhibitor) and the test compound.
For prolonged pretreatment experiments, drug (concentration range 0.1 nM-10 μM) was added to the serum-free medium on days 1 and 4 of the culture. On day 7, the cultures were washed once with DMEM, and incubated with 0.2 ml chemically defined DMEM medium for 2 h at 37° C. The cells were washed and the medium was replaced by 0.2 ml chemically defined DMEM medium (control), or chemically defined DMEM medium containing the oxidative stress trigger (se above).
For both the acute experiment and the prolonged pretreatment experiment, extracellular and intracellular LDH (lactate dehydrogenase) activities were measured spectrophotometrically at 340 nm with an EPOS Analyzer 5060, according to the method of Bergmeyer (Bergmeyer, H. U. (1974) Biochemical reagents. In: Methods of Enzymatic Analysis. H. U. Bergmeyer, eds. Academic Press, New York, 2nd Ed., pp. […]). Extracellular LDH activity in the culture medium and cytoplasmic LDH activity measured after lysis of the cells in 1 ml H2 O, were used to calculate total LDH activity and % released LDH. % Neuroprotection refers to % inhibition of LDH release, where oxidative stress trigger-induced LDH release is defined as 0% protection, and basal (control) level of LDH release is defined as 100% protection.
Neuronal primary hippocampal cultures were grown in CDM-R12 medium for 7 days. Test compounds were either administered on days 1 and 4 of culture (prolonged pretreatment) or on day 7 of culture (acute treament). […]
(Release of lactate dehydrogenase indicates damage to the cell membrane.)

Setting [4] is: DDTC trigger, prolonged pretreatment.
Where [5] appears, read: SNP trigger, prolonged pretreatment.

Where two headings read alike, the source gives them in different places. A value given as a limit tells only on which side of the number the result lay.

As for `C[C@]12N[C@H](Cc3ccccc31)c1ccccc12` [MK801, reference compound], the “cytoplasmic LDH release (glutamate toxicity)” value in assay [1] is “not prevented”.

Consider `Oc1ccc2c(c1)CCC(C(O)CNCC(O)C1CCc3ccccc3O1)O2` (stereo not drawn) [[(RSSS)+(RSRR)+(SRSS)+(SRRR)]-α-[[[2-(chroman-2-yl)-2-hydroxyethyl]amino]-methyl]-6-hydroxy-2-chroman-methanol ethanedioate (1:1)], for which, in assay [2] (2 μM, FIG. 2), the Tmax entry is “increased”, the lag time result is reported as “increased” and the rate of oxidation entry is recorded as “decreased”.

As for `Oc1ccc2c(c1)CCC(C(O)CNCC(O)C1CCc3cc(O)ccc3O1)O2` (stereo not drawn) [[(SRSR)+(SRRS)+(RSSR)] -α,α'-iminobis(methylene)bis[6-hydroxy-2-chromanmethanol]], in assay [2] (2 μM, FIG. 2), the Tmax entry is “increased”, the lag time result is on record as “increased” and the rate of oxidation entry is “decreased”.

As to `COc1ccccc1OCCNCC(O)COc1cccc2[nH]c3ccccc3c12` (stereo not shown) [carvedilol, reference compound], the inhibition at 1 µM in assay [3] (DDTC trigger, acute treatment) is below 25%; in assay [3] (setting [4]) it was below 25%; in assay [3] (SNP trigger, acute treatment), below 25%; in assay [3] (setting [5]), below 25%. Further, the inhibition at 0.1 µM in assay [3] (DDTC trigger, acute treatment) was below 25%; in assay [3] (setting [4]), below 25%; in assay [3] (SNP trigger, acute treatment) it was below 25%; in assay [3] (setting [5]) it was below 25%. In addition, the “neuroprotection against DDTC or SNP” value in assay [3] (one or the other treatment paradigm) is “not observed”.

Turning to `Cc1c(C)c2c(c(C)c1O)CCC(C)(CCCC(C)CCCC(C)CCCC(C)C)O2` (stereo not drawn) [vitamin E, α-tocopherol, reference compound], in assay [2] (20 μM vitamin E, compared with 2 μM hydroxymetabolites of nebivolol), the Tmax result is “close to the tmax for the 2 μM hydroxymetabolites of nebivolol”. In assay [2] (concentration lower than 10 μM (results not shown)), the anti-oxidant effect result is reported as “did not show any anti-oxidant effect”. The “antioxidative effect on human LDL” value in assay [2] (in vitro) is “delay the oxidation of LDL”. Besides, in assay [2] (vitamin E), the initial absorbance entry is “not affected”, the rate of oxidation entry is recorded as “not affected” and the total amount dienes entry is given as “not affected”.

(Values after patent publication US5874461A, “Use of Nebivolol as an anti-atherogenic” (priority 1995, dated 1999).)
